Experimental data: US8399676B2, “Piperidine derivatives” (Hoffman-La Roche Inc., priority 2009, dated 2013)
Where a name gives a salt, the structure may show the parent alone.

target: T1, human HSL (Homo sapiens, UniProt Q05469); assay: Human Hormone-Sensitive Lipase (HSL) enzyme inhibition assay (colorimetric, DMPT substrate); type: biochemical; settings: read-out: HSL hum IC50
T1 construct: generate a full length human HSL ORF with a 3′-His6 tag; His6 (C); made in house; host or cells: High 5 insect cells (baculovirus, pFast-BAC)
T1 sequence (Q05469 1-1076): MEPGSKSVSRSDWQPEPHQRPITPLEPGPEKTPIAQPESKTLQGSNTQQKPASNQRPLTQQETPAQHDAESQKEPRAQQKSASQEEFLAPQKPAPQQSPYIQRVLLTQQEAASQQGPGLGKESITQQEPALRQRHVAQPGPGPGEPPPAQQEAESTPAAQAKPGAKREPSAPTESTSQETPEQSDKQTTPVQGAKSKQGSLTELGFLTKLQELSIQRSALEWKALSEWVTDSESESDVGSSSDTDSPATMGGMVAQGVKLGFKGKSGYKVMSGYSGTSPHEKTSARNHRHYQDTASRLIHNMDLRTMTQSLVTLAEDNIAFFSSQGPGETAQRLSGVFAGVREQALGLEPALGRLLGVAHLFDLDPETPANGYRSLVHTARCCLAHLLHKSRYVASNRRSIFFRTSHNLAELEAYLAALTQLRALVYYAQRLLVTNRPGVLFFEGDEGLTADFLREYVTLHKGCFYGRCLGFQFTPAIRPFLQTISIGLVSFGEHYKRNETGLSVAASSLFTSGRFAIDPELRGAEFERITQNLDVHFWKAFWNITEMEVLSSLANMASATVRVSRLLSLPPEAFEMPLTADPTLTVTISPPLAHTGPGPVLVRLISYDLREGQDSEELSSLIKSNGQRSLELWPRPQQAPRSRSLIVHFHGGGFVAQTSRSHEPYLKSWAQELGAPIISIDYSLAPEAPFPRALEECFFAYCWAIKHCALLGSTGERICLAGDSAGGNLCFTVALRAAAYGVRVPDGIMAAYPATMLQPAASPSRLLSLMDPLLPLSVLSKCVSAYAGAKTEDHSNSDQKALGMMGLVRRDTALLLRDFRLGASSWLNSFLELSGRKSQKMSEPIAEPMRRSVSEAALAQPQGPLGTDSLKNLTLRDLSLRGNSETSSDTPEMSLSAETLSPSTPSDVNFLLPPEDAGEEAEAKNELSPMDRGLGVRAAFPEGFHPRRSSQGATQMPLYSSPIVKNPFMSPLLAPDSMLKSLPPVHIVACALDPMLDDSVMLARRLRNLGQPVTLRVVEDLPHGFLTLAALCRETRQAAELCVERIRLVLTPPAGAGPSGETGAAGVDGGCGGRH
Description: Production of Human Full Length Hormone Sensitive Lipase-His^6
1) Cloning: cDNA was prepared from commercial human brain polyA+ RNA and used as a template in overlapping PCR to generate a full length human HSL ORF with a 3′-His6 tag. This full length insert was cloned into the pFast-BAC vector and the DNA-sequence of several single clones was verified. DNA from a correct full length clone with the 3′His6 tag was used to transform the E. coli strain DH10BAC. Resulting bacmid DNA was used to generate a titered baculovirus stock for protein generation. The sequence of the encoded HSL conforms to Swissprot entry Q05469, with the additional C-terminal His6-tag.
2) Protein purification: Culture: 5.5 L, High 5 cells expressing human full length HSL-His^6, 48 hr., containing 25 μM E-64. Cell count: […], 90% viable.
Cells were thawed. On ice, cells were suspended in Base Buffer containing 10% glycerol, 25 mM Tris-Cl, 300 mM NaCl, 10 mM imidazole, 10 mM 2-mercaptoethanol, 2 μg pepstatin/ml, 2 μg leupeptin/ml, 2 μg antipain/ml, pH 8.0 at 4° C. in a final volume of 475 ml with 3.75×10^7 cells/ml. […] was done at 3×30 sec., Lubrol PX was added to 0.2% final concentration followed by stirring for 15 min. at 4° C. and centrifugation at 25 k×g, 60 min., 4° C. Soluble proteins were mixed with 60 ml of pre-washed and equilibrated Ni-NTA Agarose (Qiagen 30210) followed by tumbling end-over-end, 45 min., 4° C., centrifugation 1000 rpm 5 min and letting resin settle 5 min. Supernatant was removed, the resin washed in the centrifuge vessel using 5 volumes of Base Buffer containing 0.2% Lubrol PX. Centrifugation was done again, then the supernatant discarded. The resin was poured onto a 0.8 μm membrane in a disposable filter unit (Nalge 450-0080), and washed with 5 volumes of Base Buffer containing 0.2% Lubrol PX. It was then washed with 30 volumes of Base Buffer containing 60 mM imidazole pH 7.5 at 4° C. The protein was eluted with 5 volumes of 25 mM Tris-Cl, 300 mM NaCl, 200 mM imidazole, 10 mM 2-mercaptoethanol, pH 7.5 at 4° C. by tumbling resin with buffer end-over-end, 30 min., 4° C. The resin was captured on a 0.2 μm membrane disposable filter unit (Millipore SCGP U02 RE) and the elute collected in the reservoir. The elute was concentrated using a 30 k MWCO centrifugal filter device (Sartorius Vivascience Vivacell 100, VC1022), to 20 ml. It was then dialyzed overnight at 4° C., two times against 2 L of 10% glycerol, 25 mM Tris-Cl, 300 mM NaCl, 0.2 mM EDTA, 0.2 mM DTT, pH 7.5 at 4° C. The protein was filtered using a 0.22 μm disposable filter unit (Millipore SCGP00525). The protein concentration was calculated from absorbance at 280 nm, using 280=0.67 cm-1 mg-1. Yield was 235 mg, total. The protein was stored at −80° C. Human Hormone-Sensitive Lipase (HSL) enzyme inhibition assay:
HSL enzyme activity was measured by a colorimetric assay using 2,3-dimercapto-1-propanol tributyrate (Aldrich, St. Louis, Mo.) as a substrate. Typically, 1.5 mM 2,3-dimercapto-1-propanol tributyrate (DMPT) in 100 mM MOPS, pH 7.2, 0.2 mg/ml fatty acid-free BSA was prepared by sonication at 4° C. to homogenous suspension. Test compounds (2 mM stock in DMSO) were diluted 3 fold in series in DMSO. Compound solutions were diluted 24 fold in 1.5 mM DMPT containing solution and 18 ul per well was added to 384-well microplates (Corning Costar). Twelve microliters per well of human HSL (15 ug/ml) was added and the reaction mixture was incubated at 37° C. for 20 minutes. Six microliters of 12 mM dithio-bis-(2-nitrobenzoic acid) (DTNB) in DMSO plus 1.2% SDS and 0.6% Triton X-100 were added and the mixture was incubated at room temperature for 15 minutes. Product production was monitored by reading absorbance at 405 nm on an Envision Reader (PerkinElmer Life and Analytical Sciences, Shelton, Conn.).

Compared with Cc1ccc(NC(=O)C2(N)CCN(C(=O)Nc3ccc(OC(F)(F)F)cc3)CC2)cc1 [Example 84, 4-Amino-piperidine-1,4-dicarboxylic acid 4-p-tolylamide 1-[(4-trifluoromethoxy-phenyl)-amide]; hydrochloride], O=C(Nc1ccc(F)cc1)N1CCC(O)(C(=O)Nc2ccc(OC(F)(F)F)cc2)CC1 [Example 52, 4-Hydroxy-piperidine-1,4-dicarboxylic acid 1-[(4-fluoro-phenyl)-amide] 4-[(4-trifluoromethoxy-phenyl)-amide]] is 2.6-fold higher in IC50: 360 nM for the first, 950 nM for the second.

Compared with CC(C)(C)c1ccc(NC(=O)C2(O)CCN(Cc3ccc(C(F)(F)F)cc3)CC2)cc1 [Example 20, 4-Hydroxy-1-(4-trifluoromethyl-benzyl)-piperidine-4-carboxylic acid (4-tert-butyl-phenyl)-amide], CC(C)(C)c1ccc(NC(=O)C2(O)CCN(Cc3ccccc3F)CC2)cc1 [Example 45, 1-(2-Fluoro-benzyl)-4-hydroxy-piperidine-4-carboxylic acid (4-tert-butyl-phenyl)-amide] is 4-fold lower in IC50: 320 nM for the first, 80 nM for the second.

Cc1ccc(S(=O)(=O)N2CCC(N)(C(=O)Nc3ccc(C(C)(C)C)cc3)CC2)cc1 [Example 77, 4-Amino-1-(toluene-4-sulfonyl)-piperidine-4-carboxylic acid (4-tert-butyl-phenyl)-amide; hydrochloride] and Cc1ccc(S(=O)(=O)N2CCC(N)(C(=O)Nc3ccc(C(C)C)cc3)CC2)cc1 [Example 78, 4-Amino-1-(toluene-4-sulfonyl)-piperidine-4-carboxylic acid (4-isopropyl-phenyl)-amide; hydrochloride] are within 1.5-fold of each other in IC50: 50 nM for the first, 70 nM for the second.

Compared with O=C(Nc1ccc(OC(F)(F)F)cc1)C1(O)CCN(Cc2ccccc2F)CC1 [Example 58, 1-(2-Fluoro-benzyl)-4-hydroxy-piperidine-4-carboxylic acid (4-trifluoromethoxy-phenyl)-amide], CC(C)(C)CS(=O)(=O)N1CCC(O)(C(=O)Nc2ccc(OC(F)(F)F)cc2)CC1 [Example 55, 1-(2,2-Dimethyl-propane-1-sulfonyl)-4-hydroxy-piperidine-4-carboxylic acid (4-trifluoromethoxy-phenyl)-amide] is 1.7-fold higher in IC50: 190 nM for the first, 330 nM for the second. The first is the more potent here.

CC(C)Oc1ccc(NC(=O)C2(O)CCN(S(=O)(=O)c3ccccc3Cl)CC2)cc1 [Example 13, 1-(2-Chloro-benzenesulfonyl)-4-hydroxy-piperidine-4-carboxylic acid (4-isopropoxy-phenyl)-amide] and NC1(C(=O)Nc2ccc(Cl)cc2)CCN(S(=O)(=O)c2ccccc2Cl)CC1 [Example 95, 4-Amino-1-(2-chloro-benzenesulfonyl)-piperidine-4-carboxylic acid (4-chloro-phenyl)-amide] are the same in IC50: 190 nM for the first, 190 nM for the second.

CC(C)c1ccc(NC(=O)C2(N)CCN(C(=O)Nc3ccc(Cl)cc3)CC2)cc1 [Example 108, 4-Amino-piperidine-1,4-dicarboxylic acid 1-[(4-chloro-phenyl)-amide] 4-[(4-isopropyl-phenyl)-amide]; hydrochloride] and CC(C)c1ccc(NC(=O)C2(N)CCN(S(=O)(=O)c3cccc(Cl)c3)CC2)cc1 [Example 117, 4-Amino-1-(3-chloro-benzenesulfonyl)-piperidine-4-carboxylic acid (4-isopropyl-phenyl)-amide] are within 1.5-fold of each other in IC50: 100 nM for the first, 110 nM for the second.

Cc1ccccc1S(=O)(=O)N1CCC(O)(C(=O)N(C)c2ccc(OC(F)(F)F)cc2)CC1 [Example 68, 4-Hydroxy-1-(toluene-2-sulfonyl)-piperidine-4-carboxylic acid methyl-(4-trifluoromethoxy-phenyl)-amide] and CN(C(=O)C1(O)CCN(S(=O)(=O)c2ccccc2C(F)(F)F)CC1)c1ccc(OC(F)(F)F)cc1 [Example 73, 4-Hydroxy-1-(2-trifluoromethyl-benzenesulfonyl)-piperidine-4-carboxylic acid methyl-(4-trifluoromethoxy-phenyl)-amide] are the same in IC50: 100 nM for the first, 100 nM for the second.

Compared with NC1(C(=O)Nc2cccc(C(F)(F)F)c2)CCN(S(=O)(=O)c2ccccc2Cl)CC1 [Example 91, 4-Amino-1-(2-chloro-benzenesulfonyl)-piperidine-4-carboxylic acid (3-trifluoromethyl-phenyl)-amide], CCc1ccc(NC(=O)C2(N)CCN(S(=O)(=O)c3ccccc3Cl)CC2)cc1 [Example 93, 4-Amino-1-(2-chloro-benzenesulfonyl)-piperidine-4-carboxylic acid (4-ethyl-phenyl)-amide] is 18-fold lower in IC50: 710 nM for the first, 40 nM for the second.

Going from CCc1ccc(NC(=O)C2(N)CCN(S(=O)(=O)c3ccc(Cl)nc3)CC2)cc1 [Example 148, 4-Amino-1-(6-chloro-pyridine-3-sulfonyl)-piperidine-4-carboxylic acid (4-ethyl-phenyl)-amide] to CCc1ccc(NC(=O)C2(N)CCN(S(=O)(=O)c3ccc(C)cc3)CC2)cc1 [Example 81, 4-Amino-1-(toluene-4-sulfonyl)-piperidine-4-carboxylic acid (4-ethyl-phenyl)-amide], the IC50 falls from 610 nM to 120 nM (5.1-fold).

First: CCc1ccc(NC(=O)C2(N)CCN(S(=O)(=O)c3c(F)cccc3F)CC2)cc1 [Example 142, 4-Amino-1-(2,6-difluoro-benzenesulfonyl)-piperidine-4-carboxylic acid (4-ethyl-phenyl)-amide]
Second: CCc1ccc(NC(=O)C2(N)CCN(C(=O)OCc3ccccc3)CC2)cc1 [Example 132, 4-Amino-4-(4-ethyl-phenylcarbamoyl)-piperidine-1-carboxylic acid benzyl ester]
The IC50 of the first is 4.6-fold lower: 100 nM for the first, 460 nM for the second.

In the case of CCc1ccc(NC(=O)C2(N)CCN(C(c3ccccc3)c3ccccc3)CC2)cc1 [Example 159, 4-Amino-1-benzhydryl-piperidine-4-carboxylic acid (4-ethyl-phenyl)-amide], the IC50 is reported as 150 nM.
